Source: ChEMBL document CHEMBL1811882, “Synthesis and in vitro evaluation of novel pro-drugs for the treatment of nephropathic cystinosis” (Bioorg Med Chem, 2011)
Active and inactive are the calls of the source. The calls are words filed in the database; no cut-off is given here.

How the values were obtained:
[1] = Cytotoxicity against cystinotic human fibroblasts at 50 uM after 72 hrs by Alamar blue assay; assay type: cell-based; conditions: fibroblast
Fibroblast = assay: Reduction of intralysosomal cystine in cystinotic human fibroblasts at 50 uM after 24 hrs by Bradford method relative to control; assay type: functional, cell-based

For `NCCS` [CYSTEAMINE], the Activity [1] was “Non-toxic” and the Activity (Fibroblast) was “Active”.

For `Cl.Cl.N[C@@H](Cc1ccccc1)C(=O)NCCSSCCNC(=O)CCCC(=O)NCCSSCCNC(=O)CCCC(=O)NCCSSCCNC(=O)[C@@H](N)Cc1ccccc1`, the Activity [1] was “Non-toxic” and the Activity (Fibroblast) was “Active”.

With `Cl.Cl.NCCSSCCNC(=O)CCC(=O)NCCSSCCNC(=O)CCC(=O)NCCSSCCN` the Activity [1] was “Non-toxic” and the Activity (Fibroblast) was “Active”.

For `Cl.Cl.N[C@@H](Cc1ccccc1)C(=O)NCCSSCCNC(=O)CCC(=O)NCCSSCCNC(=O)CCC(=O)NCCSSCCNC(=O)[C@@H](N)Cc1ccccc1`, the Activity [1] was “Non-toxic” and the Activity (Fibroblast) was “Active”.

With `Cl.Cl.NCCSSCCNC(=O)CCCC(=O)NCCSSCCNC(=O)CCCC(=O)NCCSSCCN` the Activity [1] was “Non-toxic” and the Activity (Fibroblast) was “Active”.
